Legend:
Ikaros [1] = molecular target: T1, Ikaros (Homo sapiens, UniProt Q13422); assay: Ikaros degradation in blood by PBMC FLOW (Phase 1a); assay type: in vivo; conditions: patients with R/R B-cell NHL, IV, DL1 and DL2, PBMC FLOW
T1 construct: from tissue; host or cells: tumor tissue of R/R B-cell NHL patients
Protocol: (§1) In some embodiments, the present disclosure provides a method of administering Compound A to a patient in need thereof, comprising administering to said patient a therapeutically effective amount of Compound A or a pharmaceutically acceptable salt thereof (e.g., in a liquid formulation or a unit dose form as described herein), wherein greater than 40%, 50%, 60%, 70%, 80%, or 90% of Ikaros degradation in blood or tumor is achieved (e.g., by measuring, at 48 hours post-administration, Ikaros levels using mass spectrometry or lymphocytes and monocytes using flow cytometry).
(§2) Patients who provide informed consent and meet the eligibility criteria for the study will be enrolled and treated with Compound A administered intravenously (IV) on Day 1 of a 21-day schedule (Schedule 1). An alternative schedule of Compound A administered IV on Day 1 and Day 2 of a 21-day schedule (Schedule 2) may also be evaluated based on emerging pharmacokinetic, pharmacodynamic, and safety data observed in Schedule 1. If Schedule 2 is investigated, the first dose level will represent a split dose of the highest dose previously determined to be tolerable in Schedule 1 with the total dose administered in Schedule 2 being equivalent to the total dose administered in Schedule 1. Subsequent dose levels for Schedule 2 will follow the same dose escalation scheme as described for Schedule 1. […]

Ikaros [2] = molecular target: T1, Ikaros; assay: Ikaros degradation in tumor by targeted MS (Phase 1a); assay type: in vivo; conditions: patients, IV, DL1, targeted MS
Protocol: as §1, §2

Aiolos [3] = molecular target: T2, Aiolos (Homo sapiens, UniProt Q9UKT9); assay: Aiolos degradation in blood by PBMC FLOW (Phase 1a); assay type: in vivo; conditions: patients with R/R B-cell NHL, IV, DL1 and DL2, PBMC FLOW
T2 construct: from tissue; host or cells: tumor tissue of R/R B-cell NHL patients
T2 sequence (Q9UKT9 whole entry): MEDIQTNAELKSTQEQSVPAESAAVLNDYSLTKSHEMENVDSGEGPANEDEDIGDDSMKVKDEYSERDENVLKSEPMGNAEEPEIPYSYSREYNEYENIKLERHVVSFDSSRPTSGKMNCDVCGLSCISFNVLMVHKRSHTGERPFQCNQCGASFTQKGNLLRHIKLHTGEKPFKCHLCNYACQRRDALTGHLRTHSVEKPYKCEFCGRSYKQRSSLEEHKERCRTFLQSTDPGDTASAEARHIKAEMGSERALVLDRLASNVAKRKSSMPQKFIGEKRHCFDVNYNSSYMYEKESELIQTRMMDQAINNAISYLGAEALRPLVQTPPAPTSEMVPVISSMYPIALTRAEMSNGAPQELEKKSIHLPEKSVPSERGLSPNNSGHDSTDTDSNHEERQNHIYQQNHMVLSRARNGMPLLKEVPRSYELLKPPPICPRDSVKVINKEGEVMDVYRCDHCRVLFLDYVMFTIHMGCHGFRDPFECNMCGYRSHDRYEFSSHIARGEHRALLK
Protocol: as §1, with “than” for “than 40%, 50%,”, “Aiolos” for “Ikaros”
as §2

Aiolos [4] = molecular target: T2, Aiolos; assay: Aiolos degradation in tumor by targeted MS (Phase 1a); assay type: in vivo; conditions: patients, IV, DL1, targeted MS
Protocol: as §1, with “than” for “than 40%, 50%,”, “Aiolos” for “Ikaros”
as §2

[5] = Plasma concentration and PK in patients (Phase 1a); assay type: in vivo, human; conditions: IV, DL1 and DL2, plasma
Excerpt: (§3) Patients who provide informed consent and meet the eligibility criteria for the study will be enrolled and treated with Compound A administered intravenously (IV) on Day 1 of a 21-day schedule (Schedule 1). An alternative schedule of Compound A administered IV on Day 1 and Day 2 of a 21-day schedule (Schedule 2) may also be evaluated based on emerging pharmacokinetic, pharmacodynamic, and safety data observed in Schedule 1. If Schedule 2 is investigated, the first dose level will represent a split dose of the highest dose previously determined to be tolerable in Schedule 1 with the total dose administered in Schedule 2 being equivalent to the total dose administered in Schedule 1. Subsequent dose levels for Schedule 2 will follow the same dose escalation scheme as described for Schedule 1. If the sponsor and investigators determine that, based on the observed safety, PK, preliminary efficacy, and/or the PD profile, Schedule 2 may not be beneficial to patients, then the study will proceed immediately to Phase 1b after the Schedule 1 MTD/RP2D is determined and Schedule 2 may not be evaluated. • Schedule 1: Dose D1 on a 21-day schedule • Schedule 2: Dose D1, D2 on a 21-day schedule

IRAK4 [6] = molecular target: T3, IRAK4 (Homo sapiens, UniProt Q9NWZ3); assay: IRAK4 degradation in blood by PBMC FLOW (Phase 1a); assay type: in vivo; conditions: patients with R/R B-cell NHL, IV, DL1 and DL2, PBMC FLOW
T3 construct: from tissue; host or cells: tumor tissue of R/R B-cell NHL patients
T3 sequence (Q9NWZ3 1-460): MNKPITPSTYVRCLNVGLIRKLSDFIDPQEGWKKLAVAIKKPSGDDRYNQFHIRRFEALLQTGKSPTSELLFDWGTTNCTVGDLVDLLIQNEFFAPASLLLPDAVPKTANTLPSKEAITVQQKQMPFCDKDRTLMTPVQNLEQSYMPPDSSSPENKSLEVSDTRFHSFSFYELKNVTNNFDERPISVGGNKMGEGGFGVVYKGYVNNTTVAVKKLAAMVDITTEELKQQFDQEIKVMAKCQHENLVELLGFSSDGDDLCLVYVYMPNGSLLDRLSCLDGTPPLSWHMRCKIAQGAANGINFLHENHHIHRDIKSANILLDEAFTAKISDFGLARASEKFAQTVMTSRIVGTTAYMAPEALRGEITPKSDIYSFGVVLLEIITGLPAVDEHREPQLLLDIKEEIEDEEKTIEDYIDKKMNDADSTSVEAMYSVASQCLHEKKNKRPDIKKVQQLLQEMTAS
Protocol: as §1, with “great” for “greater”, “than 30%,” for “than”, “IRAK4” for “Ikaros”
as §2

IRAK4 [7] = molecular target: T3, IRAK4; assay: IRAK4 degradation in tumor by targeted MS (Phase 1a); assay type: in vivo; conditions: patients, IV, DL1, targeted MS
Protocol: as §1, with “great” for “greater”, “than 30%,” for “than”, “IRAK4” for “Ikaros”
as §2

[8] = system: IRAK4, Ikaros, and Aiolos; assay: Duration of target degradation in patients (Phase 1a); assay type: in vivo, human; conditions: once every three-week dosing
Excerpt: as §3

T1 sequence (Q13422 whole entry): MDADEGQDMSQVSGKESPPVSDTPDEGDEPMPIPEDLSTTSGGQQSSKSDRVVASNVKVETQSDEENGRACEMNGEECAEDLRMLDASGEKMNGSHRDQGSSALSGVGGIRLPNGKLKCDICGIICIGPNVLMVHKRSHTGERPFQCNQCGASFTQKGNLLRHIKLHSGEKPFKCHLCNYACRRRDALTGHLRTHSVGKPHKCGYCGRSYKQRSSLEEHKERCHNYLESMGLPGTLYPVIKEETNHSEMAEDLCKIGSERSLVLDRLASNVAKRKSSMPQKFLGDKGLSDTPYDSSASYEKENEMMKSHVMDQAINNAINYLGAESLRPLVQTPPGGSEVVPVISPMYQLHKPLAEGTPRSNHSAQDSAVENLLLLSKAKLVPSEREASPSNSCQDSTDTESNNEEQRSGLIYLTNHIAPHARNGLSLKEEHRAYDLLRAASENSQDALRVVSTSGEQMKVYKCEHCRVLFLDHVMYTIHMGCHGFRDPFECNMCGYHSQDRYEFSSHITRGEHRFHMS

CC(C)(O)c1cc2nc([C@H]3CC[C@H](CN4CC5(CC(CCNc6cccc7c6C(=O)N(C6CCC(=O)NC6=O)C7=O)C5)C4)CC3)sc2cc1NC(=O)c1cccc(C(F)(F)F)n1 (some centres unmarked) [Compound A]
KD of Ikaros in PBMC (Ikaros [1]): ≤ 95% | Ikaros KD in tumor (Ikaros [2]): 40-66% | KD of Aiolos in PBMC (Aiolos [3]): ≤ 95% | Aiolos KD in tumor (Aiolos [4]): 40-66% | Exposure (plasma concentration and PK) [5]: dose-proportional increase in exposure | IRAK4 degradation in PBMC (IRAK4 [6]): Up to 40% | IRAK4 KD in tumor (IRAK4 [7]): 27% | Duration of target degradation [8]: At least 72 h

Source: US20230277519A1, “IRAK4 DEGRADERS AND USES THEREOF” (Kymera Therapeutics, Inc., priority 2022, published 2023)
